Experimental data reported in PMC4999912, “Anti-Dengue Virus Constituents from Formosan Zoanthid Palythoa mutuki” (Marine Drugs, 2016).
≈ marks a conversion by molar mass, not a printed value.

What was measured:
[1] = system: DENV; set-up: method as in PMID 22201648; conditions: cited from earlier work
[2] = system: DENV-2; experiment: Anti-DENV activity assay, DENV RNA level by qRT-PCR in infected Huh-7 cells; format: cell-based, dengue virus 2; conditions: for EC50: DENV2, Huh-7 cells, MOI 0.2, treatment 2 h post infection, RNA at 72 h, read-out: EC50, half maximal effective concentration, anti-DENV-2 activity
Experimental: (§1) Huh-7 cells were cultured in Dulbecco’s modified Eagle’s medium (DMEM) containing 10% fetal bovine serum, 1% non-essential amino acids, and 1% antibiotic-antimycotic in a 5% CO2 at 37 °C. Huh-7 cells were seeded at 24-well plate at density 5 × 10^4 cells/well and infected by DENV infection at a multiplicity of infection (MOI) of 0.2 followed by test compounds treatment 2 h post infection. Total cellular RNA were harvested at 72 h post-infection, and DENV RNA level was analyzed using quantitative real-time reverse-transcription polymerase chain reaction (qRT-PCR) with specific primers against DENV NS5 gene. DENV RNA level was normalized by cellular glyceraldehydes-3-phosphate dehydrogenase (gapdh) mRNA level. 2′-C-methylcytidine (2′CMC) served as positive control. DENV of different serotypes (DENV-1: DN8700828; DENV-2: DN454009A; DENV-3: DN8700829A; DENV-4: S9201818) were obtained from the Centers for Disease Control, Department of Health, Taipei, Taiwan.

[3] = Cytotoxicity assay (MTS); format: cell-based; conditions: human, Huh-7 cells, read-out: CC50, half maximal cytotoxicity concentration
Experimental: Huh-7 cells were seeded onto 96-well plate at a density of 5 × 10^3 cells per well, followed by compound treatment for 72 h. The cell viability was determined using a standard MTS assay (CellTiter 96® Aqueous One Solution Cell Proliferation assay system, Promega, Madison, WI, USA) according to the manufacturer’s instructions.

[4] = system: DENV-1; experiment: Anti-DENV activity assay, DENV RNA level by qRT-PCR in infected Huh-7 cells; format: cell-based; conditions: Dengue virus, DENV1, MOI 0.2, 72 h
Experimental: as §1

[5] = system: DENV-3; experiment: as above; format: cell-based; conditions: Dengue virus, DENV3, MOI 0.2, 72 h
Experimental: as §1

[6] = system: DENV-4; experiment: as above; format: cell-based; conditions: Dengue virus, DENV4, MOI 0.2, 72 h
Experimental: as §1

[7] = system: DENV; format: cell-based, dengue virus; conditions: 10 μM, TCID50 assay
[8] = target: DENV NS2B/NS3 protease (Dengue virus type 2, UniProt P29990); experiment: cell-based
Sequence of DENV NS2B/NS3 protease (P29990 1476-2093): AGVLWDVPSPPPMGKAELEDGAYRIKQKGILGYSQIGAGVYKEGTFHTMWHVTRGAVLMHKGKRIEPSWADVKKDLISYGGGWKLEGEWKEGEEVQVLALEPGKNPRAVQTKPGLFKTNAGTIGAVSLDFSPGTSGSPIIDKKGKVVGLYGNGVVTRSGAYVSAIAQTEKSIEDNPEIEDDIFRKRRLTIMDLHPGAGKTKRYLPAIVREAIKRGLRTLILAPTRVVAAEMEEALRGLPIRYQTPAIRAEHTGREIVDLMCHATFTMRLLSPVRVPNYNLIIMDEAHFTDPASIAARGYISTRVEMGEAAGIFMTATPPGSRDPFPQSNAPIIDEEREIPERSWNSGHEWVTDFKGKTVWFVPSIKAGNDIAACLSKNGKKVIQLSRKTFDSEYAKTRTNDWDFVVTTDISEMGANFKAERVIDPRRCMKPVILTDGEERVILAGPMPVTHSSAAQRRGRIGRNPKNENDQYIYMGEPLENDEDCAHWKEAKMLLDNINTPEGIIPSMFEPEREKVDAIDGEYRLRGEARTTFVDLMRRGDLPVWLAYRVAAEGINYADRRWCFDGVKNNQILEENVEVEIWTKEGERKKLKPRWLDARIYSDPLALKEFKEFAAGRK
Sequence of DENV NS2B/NS3 protease (P29990 1346-1475): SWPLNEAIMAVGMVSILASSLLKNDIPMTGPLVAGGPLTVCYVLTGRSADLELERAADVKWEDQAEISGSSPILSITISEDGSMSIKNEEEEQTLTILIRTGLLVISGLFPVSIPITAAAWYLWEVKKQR
Description: The DENV RdRp activity reporter system was used to determine the anti-DENV RdRp activity as described before. The NS3 protease reporter-based assay was used to determine the anti-DENV protease activity. The Huh-7 cells were transfected with DENV NS2B/NS3 protease reporter vector pEG(∆4B/5)NLuc carrying a specific DENV protease cleavage peptide sequences and the DENV protease expression vector. […] The supernatant was collected to analyze the nano luciferase (NLuc) activity by Nano-Glo® Luciferase Assay System following the manufacturer’s instructions (Promega, Madison, WI, USA).

SMILES | EC50 ([2]; Dengue virus) [µM] | CC50 at 72 h [3] [µM] | further results
O=c1c(O)c(-c2ccc(O)c(O)c2)oc2cc(O)cc(O)c12 [quercetin] | – | – | IC50, anti-DENV activity [1]: 35.7 µg/mL (≈ 118 µM)
C[C@@]1(O)[C@H](O)[C@@H](CO)O[C@H]1n1ccc(N)nc1=O [2′CMC, 2′-C-methylcytidine, reference compound] | 13.23 ± 0.07 | 94.8 ± 4.15 | SI, selectivity index, CC50/EC50 ([2]; CC50 (Huh-7) / EC50 (DENV-2)): >7.2
CC(C)(O)CC[C@@H](O)[C@](C)(O)[C@H]1CC[C@@]2(O)C3=CC(=O)[C@@H]4CC[C@@H](O)C[C@]4(C)[C@H]3CC[C@]12C [Compound 3, 3-deoxy-20-hydroxyecdysone] | > 100 | > 200 | –
C[C@@H](C[C@@H](O)[C@](C)(O)[C@H]1CC[C@@]2(O)C3=CC(=O)[C@@H]4C[C@@H](O)[C@@H](O)C[C@]4(C)[C@H]3CC[C@]12C)C(C)(C)O [Compound 4, 24-epi-makisterone A] | 46.5 ± 0.59 | – | anti-DENV-2 activity in words [2]: weak anti-DENV-2 activities
CC(=O)OC1CC(C)(C)C(=C=CC(C)=CC=CC=CC=C(C)C=C2C=C(C=CC34OC3(C)CC(O)CC4(C)C)C(=O)O2)C(C)(O)C1 (centres unmarked) [Compound 9, peridinin] | 4.5 ± 0.46 | 133 ± 3.21 | IC50 ([2]; Dengue virus, DENV2, Huh-7, read-out: IC50, antiviral activity (abstract)): 4.5 ± 0.46 µg/mL (≈ 7.13 µM); EC50 [4]: 7.62 ± 0.17 µM; EC50 [5]: 5.84 ± 0.19 µM; EC50 [6]: 6.51 ± 0.3 µM; decrease of the viral titer as compared to mock-treatment [7]: 2 ± 0.6 log10; EC50 [8]: 8.5 ± 0.41 µM
CC(=O)O[C@H]1C[C@@]2(C)[C@@H](C[C@H]1O)C(=O)C=C1[C@@H]2CC[C@]2(C)[C@@H]([C@@](C)(O)[C@H](O)CCC(C)(C)O)CC[C@@]12O [Compound 2, 20-hydroxyecdysone 2-acetate] | > 100 | > 200 | –
CC(C)(O)CCC(O)C(C)(O)C1CCC2(O)C3=CC(=O)C4C(O)CCCC4(C)C3CCC12C (centres unmarked) [Compound 1, palythone A] | 54 ± 2.17 | – | anti-DENV-2 activity in words [2]: weak anti-DENV-2 activities
